The values that follow come from paper PMC6942214 (Bioorganic & medicinal chemistry letters, 2019).

Data set [1] concerns cell lysate of EU-1 leukemia cells. In words: Prodrug activation in non-denatured EU-1 cell lysate. It is filed as in vitro ADME.
Data set [2] can be described thus: Water solubility by an HPLC method. Conditions: ratio of water solubilities. The class given is physicochemical.
The subject of data set [3] is p53. Put plainly: Western blot of p53 in EU-1 cells. It is filed as cell-based.
Data set [4] addresses T1, MDM2 (Homo sapiens, UniProt Q00987). Put plainly: Western blot of MDM2 in EU-1 cells. The class given is cell-based. In general terms: A western blot detects proteins with antibodies after separation by electrophoresis.
The subject of another data set is normal cells. Conditions: at therapeutic concentration, preliminary results; cited from earlier work.
Another data set deals with EU-1 ALL. In words: WST cytotoxicity assay in EU-1 leukemia cells. It is filed as cell-based. The conditions noted are these: read-out: IC50 (μM) EU-1 ALL.
Data set [5] concerns p53. The conditions noted are these: EU-1 ALL cells, dose- and time-dependent; cited from earlier work.
The target of data set [6] is T1, MDM2. Conditions: EU-1 ALL cells; cited from earlier work.

T1 sequence (Q00987 whole entry): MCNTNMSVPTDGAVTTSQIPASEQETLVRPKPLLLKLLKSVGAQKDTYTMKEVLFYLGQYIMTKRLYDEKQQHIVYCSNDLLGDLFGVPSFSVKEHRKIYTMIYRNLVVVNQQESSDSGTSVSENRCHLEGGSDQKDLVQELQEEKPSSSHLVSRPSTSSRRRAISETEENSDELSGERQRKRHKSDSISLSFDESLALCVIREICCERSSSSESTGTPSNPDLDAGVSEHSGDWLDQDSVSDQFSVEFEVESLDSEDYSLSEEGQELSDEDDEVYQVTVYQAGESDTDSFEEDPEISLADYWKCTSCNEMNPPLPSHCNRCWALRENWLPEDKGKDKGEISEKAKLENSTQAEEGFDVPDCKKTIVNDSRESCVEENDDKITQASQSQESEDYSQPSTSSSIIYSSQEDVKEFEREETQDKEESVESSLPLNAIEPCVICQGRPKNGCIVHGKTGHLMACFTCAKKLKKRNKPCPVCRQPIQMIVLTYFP

As to `CC(C)[C@H](N)C(=O)OCCOc1cccc2c1C(=O)c1c(OCCOC(=O)[C@@H](N)C(C)C)cc(NC(=O)CCl)cc1C2=O.Cl` [Compound 9c], in data set [1], the “time within which the ester bond was cleaved to give parent drug” value was not above 15 min.

`Cl.N[C@@H](Cc1ccccc1)C(=O)OCCOc1cccc2c1C(=O)c1c(OCCOC(=O)[C@@H](N)Cc3ccccc3)cc(NC(=O)CCl)cc1C2=O` [Compound 9f]: the “fold greater solubility than parent drug BW-AQ-238” value in data set [2] is “over 11000 fold”.

Turning to `O=C(CCl)Nc1cc(OCCO)c2c(c1)C(=O)c1cccc(OCCO)c1C2=O` [BW-AQ-238], the “p53 level (Western blot)” value in the data set on p53 [3] (0.8 μM, 15-h time point) is recorded as “increased”. Besides, the “p53 level, time course (Western blot)” value with p53 [3] (1 μM) is given as “elevated after 4 hours of treatment”. Moreover, on MDM2 [4] (0.8 μM, 15-h time point), the “cytoplasmic MDM2 level (Western blot)” value is listed as “significantly down-regulated”. Also, the “MDM2 level, time course (Western blot)” value at MDM2 [4] (1 μM) is given as “Down-regulation of MDM2 could be detected after 4-h treatment”.

With `O=C(CCl)Nc1cc(O)c2c(c1)C(=O)c1cccc(O)c1C2=O` [BW-AQ-101], in the data set on normal cells, the “toxicity to normal cells” value was “minimal or no toxicity”. The 50% inhibitory concentration (IC50) (usually the concentration that inhibits the measured activity by half) with EU-1 ALL is 0.83 µM. Also, the “effect on p53” value in the data set on p53 [5] is “induced activation of p53”. Further, on MDM2 [6], the “effect on MDM2” value is “inhibited MDM2”.
